Here are results for 14 compounds from publication PMC11818416, “Discovery of TRPV4-Targeting Small Molecules with Anti-Influenza Effects Through Machine Learning and Experimental Validation” (International Journal of Molecular Sciences, 2025).

Data set [1] is described as follows: CCK-8 cytotoxicity test on MDCK cells. Conditions: dog. (In general: Tetrazolium assays rely on reduction of a dye to a coloured formazan, in cell work by metabolically active cells.)
Experimental: (§1) MDCK cells were inoculated in 96-well plates at 37 °C and 5% carbon dioxide for 12 h. The cell supernatant was discarded when the cell density reached 60–70%, and then different concentrations of drugs (0.1, 1, 10, 100 μM) were inoculated in the cell plates, moreover 3 repeat holes were set for each concentration gradient. After 48 h, cell viability was measured using cell counting kit-8 (Beyotime, C0039, CCK-8) depending on factory instructions. The absorbance at 450 nm for each pore was measured using an enzyme-linked immunosorbent plate reader, and half inhibitory concentration (CC50) value of cell viability were calculated by a nonlinear regression curve fitting analysis (Prism 8) of cell viability to the log10 conversion concentration value.
In another data set the test system is H1N1-UI182 in 293T cells. In kind it is cell-based, human.
The next data set deals with H1N1-UI182. In words: Mice infected with lethal H1N1-UI182 virus: body weight, survival, lung index, lung viral titer, pathology, viral proteins. In kind it is in vivo, BALB/c mice. To be noted: for viral titers in the lung: Supplementary Figures S1C and S2C, comparable to the positive drugs; for survival rate of infected mice: 15-drug round (Figure 4C,D); for expression levels of viral proteins (NP, HA, M1) in lungs, WB: 15-drug round (Figure 4K,L); for rate of weight loss in virus-infected mice: 15-drug round, monitored 14 days (Figure 4A,B); for lung injury (pathology): compared to other treatment groups and virus group, glecaprevir 30 mg/kg, everolimus 5 mg/kg (Figures S1, S2); for protection rate (survival of influenza-infected mice): H1N1-UI182 5 × LD50, BALB/c mice; for rate of weight loss at different concentrations / survival at different concentrations / dose dependence of the inhibitory effect on the virus (lung index, pulmonary viral load, pathological injury): oral.

A further data set can be described thus: in vitro. Conditions: dog.
The test system of data set [2] is NF-κB signaling pathway and inflammatory cytokines. In words: Inflammatory cytokine expression after H1N1-UI182 infection by WB and RT-qPCR. The format is in vivo, mouse. Conditions: after H1N1-UI182 infection (Figure 6A-C). (Real-time PCR tracks product formation cycle by cycle.)
The mark [3] stands for this setting: glecaprevir 10, 20, 40 mg/kg/day, everolimus 1, 5, 25 mg/kg/day.
Where [4] appears, read: glecaprevir 10, 20, 40 mg/kg/day, everolimus 1, 5, 25 mg/kg/day, 5 dpi.

Each structure is given as a SMILES string. Counter-ions that a name gives are not always drawn. Some results are limits rather than exact numbers.

Experimental for in vitro: as §1

The compound `CN[C@@H]1[C@@H](O)[C@@H](O[C@@H]2[C@@H](O)[C@H](O[C@H]3O[C@H](CN)[C@@H](O)[C@H](O)[C@H]3O)[C@@H](N)C[C@H]2NC(=O)[C@@H](O)CN)OC[C@]1(C)O` [Isepamicin] registered a CC50 at 48 h in data set [1] (MDCK cells) above 100 µM.
Still for that read-out and setting: then `NC[C@@H]1O[C@H](O[C@H]2[C@@H](O)[C@H](O[C@@H]3[C@@H](O)[C@H](N)C[C@H](N)[C@H]3O[C@H]3O[C@H](CO)[C@@H](O)[C@H](O)[C@H]3N)O[C@@H]2CO)[C@H](N)[C@@H](O)[C@@H]1O` [Paromomycin, Paromomycin sulfate], with above 100 µM.
With `CO[C@H]1C[C@@H]2CC[C@@H](C)[C@@](O)(O2)C(=O)C(=O)N2CCCC[C@H]2C(=O)O[C@H]([C@H](C)C[C@@H]2CC[C@@H](OCCO)[C@H](OC)C2)CC(=O)[C@H](C)/C=C(\C)[C@@H](O)[C@@H](OC)C(=O)[C@H](C)C[C@H](C)/C=C/C=C/C=C/1C` [Everolimus], in the data set on H1N1-UI182 in 293T cells, the “expression level of NP protein in normal 293T cells (WB)” value was “higher in normal cells” and the “expression of NP protein in TRPV4−/− 293T cells (WB)” value was “significantly decreased”. Besides, in the data set with H1N1-UI182 (5 dpi), the “viral titers in the lung” value is recorded as “significantly reduced viral titers”. Moreover, in the data set with H1N1-UI182, the “survival rate of infected mice” value is listed as “significantly improved the survival rate”; the “expression levels of viral proteins (NP, HA, M1) in lungs, WB” value was “attenuated obviously”; the “rate of weight loss in virus-infected mice” value is listed as “significantly slowed the rate of weight loss”; the “protection rate (survival of influenza-infected mice)” value stood at 100%. The “viral load in the lungs” value in the data set with H1N1-UI182 (5 days after infection, compared to the viral group (Figure 4G-J)) is on record as “evidently lower”. Further, the “lung injury (pathology)” value in the data set with H1N1-UI182 (5 days after infection) is reported as “noticeable signs of lung improvement”. Also, the “pulmonary viral load at different concentrations” value in the data set on H1N1-UI182 (everolimus 1, 5, 25 mg/kg/day, 5 dpi (Figure 5H)) is given as “decreased notably with the increase of drug concentration”. Moreover, in the data set with H1N1-UI182 (setting [3]), the “rate of weight loss at different concentrations” value is given as “observably retarded the rate of weight loss” and the “survival at different concentrations” value is listed as “improved survival in a concentration-dependent manner”. In the data set on H1N1-UI182 (setting [4]), the “dose dependence of the inhibitory effect on the virus (lung index, pulmonary viral load, pathological injury)” value was “meaningfully dose-dependent”. The CC50 at 48 h in “in vitro” is 78.2 µM. Further, the “expression levels of phosphorylated NF-κB, IL-6, IL-10, IFN-β, TNF-α (WB)” value in data set [2] is listed as “decreased”.
In the case of `CC(/C=C/C=C(\C)C(=O)O[C@@H]1O[C@H](CO[C@@H]2O[C@H](CO)[C@@H](O)[C@H](O)[C@H]2O)[C@@H](O)[C@H](O)[C@H]1O)=C\C=C\C=C(C)\C=C\C=C(/C)C(=O)O[C@@H]1O[C@H](CO[C@@H]2O[C@H](CO)[C@@H](O)[C@H](O)[C@H]2O)[C@@H](O)[C@H](O)[C@H]1O` [Crocin], in data set [1] (MDCK cells), the CC50 at 48 h was above 100 µM.
The compound `Cc1cc2nc3c(=O)[nH]c(=O)nc-3n(C[C@H](O)[C@H](O)[C@H](O)COP(=O)(O)OP(=O)(O)OC[C@H]3O[C@@H](n4cnc5c(N)ncnc54)[C@H](O)[C@@H]3O)c2cc1C` [FAD] gave a CC50 in the data set with MDCK cells below 50 µM.
Turning to `COC(=O)N[C@H](C(=O)N1CCC[C@H]1C(=O)Nc1ccc([C@@H]2CC[C@@H](c3ccc(NC(=O)[C@@H]4CCCN4C(=O)[C@@H](NC(=O)OC)C(C)C)cc3)N2c2ccc(C(C)(C)C)cc2)cc1)C(C)C` [Ombitasvir], in data set [1], the CC50 at 48 h is above 100 µM.
Turning to `C[C@@H]1O[C@@H](OC[C@H]2O[C@@H](Oc3c(-c4ccc(OCCO)c(OCCO)c4)oc4cc(OCCO)cc(O)c4c3=O)[C@H](O)[C@@H](O)[C@@H]2O)[C@H](O)[C@H](O)[C@H]1O` [Troxerutin], the CC50 at 48 h in data set [1] (MDCK cells) is below 50 µM.
Same read-out and setting: for `CCCCC(=O)OCC(=O)[C@]1(O)Cc2c(O)c3c(c(O)c2[C@@H](O[C@H]2C[C@H](NC(=O)C(F)(F)F)[C@H](O)[C@H](C)O2)C1)C(=O)c1c(OC)cccc1C3=O` [Valrubicin] the value was below 50 µM; for `CNCC(=O)OCc1cccnc1N(C)C(=O)OC(C)[n+]1cnn(C[C@](O)(c2cc(F)ccc2F)[C@@H](C)c2nc(-c3ccc(C#N)cc3)cs2)c1` (stereo partly drawn) [Isavuconazonium], above 100 µM.
In the case of `CC(C)(C)[C@@H]1NC(=O)O[C@@H]2CCC[C@H]2OC/C=C/C(F)(F)c2nc3ccccc3nc2O[C@@H]2C[C@@H](C(=O)N[C@]3(C(=O)NS(=O)(=O)C4(C)CC4)C[C@H]3C(F)F)N(C2)C1=O` [Glecaprevir], the “viral titers in the lung” value with H1N1-UI182 (5 dpi) was “significantly reduced viral titers”. Further, in the data set with H1N1-UI182, the “survival rate of infected mice” value is “significantly improved the survival rate”; the “expression levels of viral proteins (NP, HA, M1) in lungs, WB” value is “attenuated obviously”; the “rate of weight loss in virus-infected mice” value is reported as “significantly slowed the rate of weight loss”; the “protection rate (survival of influenza-infected mice)” value turned out to be 80%. In addition, the “lung injury (pathology)” value with H1N1-UI182 (5 days after infection) is “noticeable signs of lung improvement”. In the data set with H1N1-UI182 (glecaprevir 10, 20, 40 mg/kg/day (Figure 5K)), the “expression of viral protein in mouse lungs at higher doses, WB” value was “did not effectively inhibit the expression of viral protein at higher doses”. Also, in the data set on H1N1-UI182 (glecaprevir 10, 20, 40 mg/kg/day, 5 dpi, H&E (Figure 5I)), the “lung lesions at higher concentrations” value is “higher concentrations did not alter the lung lesions”. For the same compound, in the data set on H1N1-UI182 (setting [3]), the “rate of weight loss at different concentrations” value is “observably retarded the rate of weight loss” and the “survival at different concentrations” value was “improved survival in a concentration-dependent manner”. The “dose dependence of the inhibitory effect on the virus (lung index, pulmonary viral load, pathological injury)” value in the data set on H1N1-UI182 (setting [4]) is given as “did not display concentration-dependent characteristics”. Also, in the data set “in vitro”, the CC50 at 48 h turned out to be 77.3 µM. In data set [2], the “expression levels of phosphorylated NF-κB, IL-6, IL-10, IFN-β, TNF-α (WB)” value is given as “decreased”.
Regarding `NC[C@H]1O[C@H](O[C@H]2[C@H](O)[C@@H](O[C@H]3O[C@H](CO)[C@@H](O)[C@H](N)[C@H]3O)[C@H](N)C[C@@H]2N)[C@H](N)C[C@@H]1O` [Tobramycin], in data set [1] (MDCK cells), the CC50 at 48 h is above 100 µM.
For the compound `CCC[C@H](NC(=O)[C@@H]1[C@H]2CCC[C@H]2CN1C(=O)[C@@H](NC(=O)[C@@H](NC(=O)c1cnccn1)C1CCCCC1)C(C)(C)C)C(=O)C(=O)NC1CC1` [Telaprevir], in the data set “in vitro”, the CC50 at 48 h is above 100 µM.
Regarding `C[C@H]1O[C@H](O[C@H]2[C@H](O)[C@@H](O)[C@@H](O[C@H]3[C@H](O)[C@@H](O)C(O)O[C@@H]3CO)O[C@@H]2CO)[C@H](O)[C@@H](O)[C@@H]1N[C@H]1C=C(CO)[C@@H](O)[C@H](O)[C@H]1O` (stereo partly drawn) [Acarbose], the “rate of weight loss in virus-infected mice” value in the data set with H1N1-UI182 is “significantly slowed the rate of weight loss”. In addition, in data set [1] (MDCK cells), the CC50 at 48 h is above 100 µM.
Take `CSCCNc1nc(SCCC(F)(F)F)nc2c1ncn2[C@@H]1O[C@H](COP(=O)(O)OP(=O)(O)C(Cl)(Cl)P(=O)(O)O)[C@@H](O)[C@H]1O` [Cangrelor]: the “rate of weight loss in virus-infected mice” value in the data set with H1N1-UI182 is listed as “significantly slowed the rate of weight loss”. The CC50 at 48 h in “in vitro” is above 100 µM.
